# Read-outs that look alike come from different tables or passages of the source.
# Assays:
# [1] = test system: mesocorticolimbic dopaminergic neurons in the VTA; conditions: cited from earlier work; for firing rate of mesocorticolimbic dopaminergic neurons in the VTA: Prisco and Eposito 1995, Di Masico et al 1998
# [2] = test system: dopamine cells in the VTA; assay: In vivo assessment of dopamine neuron firing in rat ventral tegmental area
# Method: In vivo assessment of dopamine neuron firing in rat ventral tegmental area was conducted as described by Schilstrom et al. (Neuroscience 125:957-64, 2004). Briefly, male Sprague Dawley rats (250-300 g) were anesthetized with chloral hydrate (400 mg/kg i.p.) and mounted in a stereotactic frame. Anesthesia was maintained throughout the experiment with periodical injections of chloral hydrate and body temperature was kept at 37° C. with a rectal thermometer connected to an electrical heating pad. Recording electrodes were pulled in a Narishige vertical puller from borosilicate glass capillaries with outer and inner diameters of 1.50 and 1.17 mm, respectively, and filled with 2% Pontamine Sky Blue in 2 M NaCl. […] The rat was killed with an overdose of anesthetic, and the brain was removed and placed in 25% sucrose 10% paraformaldehyde solution. Sections of the VTA were cut ([…]) and stained with Neutral Red and the recording sites were verified by light microscopy.
# [3] = test system: NMDA-induced currents in pyramidal cells of the medial prefrontal cortex; assay: Facilitation of NMDA-induced currents in pyramidal cells of the medial prefrontal cortex in vitro (brain slices, voltage-clamp); format: cell-based, rat
structure (smiles),measurement,setting,value
COCCCC/C(=N\OCCN)c1ccc(C(F)(F)F)cc1 [fluvoxamine],firing rate of mesocorticolimbic dopaminergic neurons in the VTA,[1],slight inhibition
CNCCC(Oc1ccc(C(F)(F)F)cc1)c1ccccc1 (stereo not shown) [fluoxetine],firing rate of mesocorticolimbic dopaminergic neurons in the VTA,[1],slight inhibition
CN(C)CCCC1(c2ccc(F)cc2)OCc2cc(C#N)ccc21 (racemic) [citalopram],Emax,"[2]; Rattus norvegicus, Neuron, FIG. 2, read-out: maximal response, burst difference",~10%
"CN(C)CCC[C@@]1(c2ccc(F)cc2)OCc2cc(C#N)ccc21 [escitalopram, (S)-1-[3-(dimethylamino)propyl]-1-(4-fluorophenyl)-1,3-dihydro-5-isobenzofurancarbonitrile]",effect on firing rate of dopamine cells in the VTA,"[2]; 320 μg/kg, FIG. 1",elevates firing rate statistically significant
same,effect on burst firing of dopaminergic cells in the VTA,"[2]; doses equal to and above 160 μg/kg, FIG. 2",increases burst firing statistically significant dose-dependently
same,effect on firing rate of dopamine cells in the VTA,"[2]; higher dose 640 μg/kg, FIG. 1",appears to be maintained
same,burst difference,"[2]; highest dose tested 640 μg/kg, FIG. 2",about 20%
CCOc1ccccc1OC(c1ccccc1)C1CNCCO1 (stereo not shown) [reboxetine],excitability and burst firing of dopaminergic neurons in the VTA,"[1]; Linner et al, 2001",enhances the excitability of dopaminergic neurons in the VTA with a preferential activation of their burst firing mode
same,effect on NMDA-induced currents in pyramidal cells of the prefrontal cortex,[3],increases NMDA-induced currents
CN(C)CCC[C@]1(c2ccc(F)cc2)OCc2cc(C#N)ccc21 [R-citalopram],effect on the escitalopram-induced increase of burst firing,"[2]; 320 μg/kg with escitalopram 320 μg/kg, FIG. 2",significantly inhibits the effect of escitalopram
same,effect on firing rate of dopamine cells in the VTA,"[2]; given alone, dose not stated, FIG. 1",unaffected
same,effect on burst firing of dopaminergic cells in the VTA,"[2]; given alone, FIG. 2",no effect on burst firing
same,effect on the escitalopram-induced increase of firing rate,"[2]; pre-treatment with 320 μg/kg before escitalopram 320 μg/kg, FIG. 1",blocked
Fc1ccc([C@@H]2CCNC[C@H]2COc2ccc3c(c2)OCO3)cc1 [paroxetine],firing rate of mesocorticolimbic dopaminergic neurons in the VTA,[1],slight inhibition
Cc1nc2n(c(=O)c1CCN1CCC(c3noc4cc(F)ccc34)CC1)CCCC2 [risperidone],effect on NMDA-induced currents in pyramidal cells of the prefrontal cortex,"[3]; bath application, holding potential −60 mV, FIG. 3",increase NMDA-induced currents
CN[C@H]1CC[C@@H](c2ccc(Cl)c(Cl)c2)c2ccccc21 [sertraline],firing rate of mesocorticolimbic dopaminergic neurons in the VTA,[1],slight inhibition

# From patent US20070259952A1 (H. LUNDBECK A/S, priority 2006, published 2007)
